Measurements from patent US20250344734A1, “UNSATURATED FATTY ACIDS AND THEIR USE TO MODIFY TASTE” (Firmenich Incorporated, priority 2022, published 2025).

Legend:
Format in all cases: cell-based
[1] = target: T1, T2R08 (TAS2R08) (Homo sapiens, UniProt Q9NYW2); experiment: FLIPR calcium assay, block of bitter agonist response, T2R08; conditions: unsaturated fatty acid concentration of 200 µM, cells stimulated with known bitter agonist, read-out: percentage block of cellular response over baseline, 08
T1 construct: expressed in transfected cells; host or cells: cells expressing a promiscuous G protein (e.g., G16g44)
T1 sequence (Q9NYW2 1-309): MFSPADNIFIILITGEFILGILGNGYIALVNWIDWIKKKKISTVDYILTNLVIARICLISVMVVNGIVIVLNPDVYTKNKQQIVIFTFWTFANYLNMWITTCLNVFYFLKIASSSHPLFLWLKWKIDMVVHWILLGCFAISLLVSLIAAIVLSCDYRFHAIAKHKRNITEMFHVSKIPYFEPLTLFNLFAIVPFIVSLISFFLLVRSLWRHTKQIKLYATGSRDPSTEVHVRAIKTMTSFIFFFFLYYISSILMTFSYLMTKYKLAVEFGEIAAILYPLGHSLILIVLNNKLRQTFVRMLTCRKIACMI
Procedure: (§1) Cells expressing a promiscuous […] (e.g., G16g44) were transfected with vectors encoding 18 functional bitter receptor cDNAs, with one receptor per transfection. The cells were transfected directly in 384-well format high-density plates and incubated for 28 hours. Later, cells were loaded with the Ca-specific dye Fluo4-AM. After an incubation of 60 minutes, excess dye is washed off, and cells are stimulated with a known bitter agonist for each receptor and various unsaturated fatty acids. Changes in intracellular fluorescence are recorded using a FLIPR instrument. Bitter antagonists and corresponding receptors are identified based on percentage inhibition of agonist's activity on a given receptor.
(§2) The above protocol was carried out using 16 different unsaturated fatty acids. A particular T2R receptor was identified as being antagonized by a particular unsaturated fatty acid if it triggered a >25% block of agonist's cellular response at 200 μM concentration of unsaturated fatty acid. […] Table 2 indicates the sixteen (16) compounds tested by their compound number from Table 1 above. The 18 bitter taste receptors screened are the human bitter taste receptors we named. T2R01 (TAS2R01), T2R03 (TAS2R03), T2R04 (TAS2R04), T2R07 (TAS2R07), T2R08 (TAS2R08), T2R09 (TAS2R09), T2R10 (TAS2R10), T2R13 (TAS2R13), T2R14 (TAS2R14), T2R16 (TAS2R16), T2R54 (TAS2R39, T2R61 (TAS2R43), T2R63 (TA2R20), T2R64 (TAS2R31), T2R65 (TAS2R19), T2R67 (TAS2R50), T2R71 (TAS2R41), and T2R75 (TAS2R46). The corresponding IUPHAR nomenclature for each receptor is given in parenthesis. In Table 2, these receptors are identified by the last two digits. For example, T2R01 is indicated as 01. Table 2 reports the percentage block of cellular response over baseline at an unsaturated fatty acid concentration of 200 µM.

[2] = target: T2, T2R10 (TAS2R10) (Homo sapiens, UniProt Q9NYW0); experiment: FLIPR calcium assay, block of bitter agonist response, T2R10; conditions: unsaturated fatty acid concentration of 200 µM, cells stimulated with known bitter agonist, read-out: percentage block of cellular response over baseline, 10
T2 construct: expressed in transfected cells; host or cells: cells expressing a promiscuous G protein (e.g., G16g44)
T2 sequence (Q9NYW0 1-307): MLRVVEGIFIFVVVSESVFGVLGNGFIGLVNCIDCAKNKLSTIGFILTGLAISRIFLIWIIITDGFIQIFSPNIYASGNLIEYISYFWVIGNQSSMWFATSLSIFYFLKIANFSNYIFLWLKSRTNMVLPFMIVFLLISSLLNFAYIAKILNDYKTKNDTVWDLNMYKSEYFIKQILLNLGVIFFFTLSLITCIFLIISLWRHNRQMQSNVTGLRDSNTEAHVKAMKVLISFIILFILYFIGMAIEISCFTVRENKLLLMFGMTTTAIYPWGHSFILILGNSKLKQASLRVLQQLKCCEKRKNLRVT
Procedure: as §1, §2

[3] = target: T3, T2R01 (TAS2R01) (Homo sapiens, UniProt Q9NYW7); experiment: FLIPR calcium assay, block of bitter agonist response, T2R01; conditions: unsaturated fatty acid concentration of 200 µM, cells stimulated with known bitter agonist, read-out: percentage block of cellular response over baseline, 01
T3 construct: expressed in transfected cells; host or cells: cells expressing a promiscuous G protein (e.g., G16g44)
T3 sequence (Q9NYW7 1-299): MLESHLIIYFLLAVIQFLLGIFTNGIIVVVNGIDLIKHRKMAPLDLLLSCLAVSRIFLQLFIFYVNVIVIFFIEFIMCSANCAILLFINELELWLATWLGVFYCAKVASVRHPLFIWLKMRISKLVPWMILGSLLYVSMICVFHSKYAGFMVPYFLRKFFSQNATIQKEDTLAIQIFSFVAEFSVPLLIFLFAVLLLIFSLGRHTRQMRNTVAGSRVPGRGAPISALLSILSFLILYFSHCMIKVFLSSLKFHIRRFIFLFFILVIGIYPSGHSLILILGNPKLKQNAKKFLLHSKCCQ
Procedure: as §1, §2

[4] = target: T4, T2R14 (TAS2R14) (Homo sapiens, UniProt Q9NYV8); experiment: FLIPR calcium assay, block of bitter agonist response, T2R14; conditions: unsaturated fatty acid concentration of 200 µM, cells stimulated with known bitter agonist, read-out: percentage block of cellular response over baseline, 14
T4 construct: expressed in transfected cells; host or cells: cells expressing a promiscuous G protein (e.g., G16g44)
T4 sequence (Q9NYV8 1-317): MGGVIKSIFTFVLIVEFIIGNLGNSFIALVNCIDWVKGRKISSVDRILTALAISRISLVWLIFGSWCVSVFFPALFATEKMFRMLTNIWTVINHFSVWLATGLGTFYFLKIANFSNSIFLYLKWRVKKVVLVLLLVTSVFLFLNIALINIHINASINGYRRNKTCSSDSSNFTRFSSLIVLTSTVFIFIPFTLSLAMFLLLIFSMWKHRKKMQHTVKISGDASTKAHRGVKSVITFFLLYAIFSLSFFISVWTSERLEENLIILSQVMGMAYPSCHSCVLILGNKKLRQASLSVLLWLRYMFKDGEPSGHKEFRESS
Procedure: as §1, §2

[5] = target: T5, T2R54 (TAS2R39 (Homo sapiens, UniProt P59534)); experiment: FLIPR calcium assay, block of bitter agonist response, T2R54; conditions: unsaturated fatty acid concentration of 200 µM, cells stimulated with known bitter agonist
T5 construct: expressed in transfected cells; host or cells: cells expressing a promiscuous G protein (e.g., G16g44)
T5 sequence (P59534 1-338): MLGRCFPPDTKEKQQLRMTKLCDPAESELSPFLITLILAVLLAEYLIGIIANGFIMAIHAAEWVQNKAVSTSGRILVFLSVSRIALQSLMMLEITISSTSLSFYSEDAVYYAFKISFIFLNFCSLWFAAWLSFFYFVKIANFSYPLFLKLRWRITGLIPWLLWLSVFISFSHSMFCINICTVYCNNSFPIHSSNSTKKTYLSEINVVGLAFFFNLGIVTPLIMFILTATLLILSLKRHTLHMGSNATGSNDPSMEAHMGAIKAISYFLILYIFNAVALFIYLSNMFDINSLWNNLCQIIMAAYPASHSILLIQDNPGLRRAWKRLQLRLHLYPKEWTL
Procedure: as §1, §2

[6] = target: T6, T2R75 (TAS2R46) (Homo sapiens, UniProt P59540); experiment: FLIPR calcium assay, block of bitter agonist response, T2R75; conditions: unsaturated fatty acid concentration of 200 µM, cells stimulated with known bitter agonist
T6 construct: expressed in transfected cells; host or cells: cells expressing a promiscuous G protein (e.g., G16g44)
T6 sequence (P59540 1-309): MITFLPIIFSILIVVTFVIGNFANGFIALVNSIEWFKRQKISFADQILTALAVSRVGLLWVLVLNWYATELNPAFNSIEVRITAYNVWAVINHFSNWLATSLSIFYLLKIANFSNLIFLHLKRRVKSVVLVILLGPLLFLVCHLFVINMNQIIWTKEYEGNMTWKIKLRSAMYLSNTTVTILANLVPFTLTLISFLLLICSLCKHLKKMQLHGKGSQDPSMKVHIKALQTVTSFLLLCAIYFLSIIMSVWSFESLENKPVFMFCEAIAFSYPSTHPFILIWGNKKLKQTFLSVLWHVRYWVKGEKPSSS
Procedure: as §1, §2

With `CCC/C=C/C(=O)O` [Compound 101] the inhibition at 200 µM [1] was > 25% and the inhibition at 200 µM [2] was > 25%.

`CCCCCC/C=C/C(=O)O` [Compound 104] was tested, and the inhibition at 200 µM [3] was > 35%, the inhibition at 200 µM [1] was > 40% and the inhibition at 200 µM [2] was > 60%. For the same molecule, the inhibition at 200 µM [4] was > 40%.

In the case of `CCCCCCC/C=C/C(=O)O` [Compound 105], the inhibition at 200 µM [3] is reported as > 60%, the inhibition at 200 µM [1] is reported as > 55% and the inhibition at 200 µM [2] is reported as > 95%. The inhibition at 200 µM [4] was 50%.

With `CCCCCCCC/C=C/C(=O)O` [Compound 106] the inhibition at 200 µM [3] was 80%, the inhibition at 200 µM [1] was > 70% and the inhibition at 200 µM [2] was > 95%. It also gave an inhibition at 200 µM [4] of 80%.

For `CCCCCCCCC/C=C/C(=O)O` [Compound 107], the inhibition at 200 µM [3] was 90%, the inhibition at 200 µM [1] was > 70% and the inhibition at 200 µM [2] was > 95%. The inhibition at 200 µM [4] was > 90%.

For `C=CCCCCCC(=O)O` [Compound 115], the inhibition at 200 µM [2] was > 25%.

For `C=CCCCCCCC(=O)O` [Compound 116], the inhibition at 200 µM [3] was > 25%, the inhibition at 200 µM [1] was > 40% and the inhibition at 200 µM [2] was > 35%.

For `C=CCCCCCCCC(=O)O` [Compound 117], the inhibition at 200 µM [3] was 50%, the inhibition at 200 µM [1] was > 55% and the inhibition at 200 µM [2] was > 70%. For the same molecule, the inhibition at 200 µM [4] was > 25%, the “percentage block of cellular response over baseline, 54” value (shortened to “percentage block … 54”) [5] was >80% and the “percentage block of cellular response over baseline, 75” value (“percentage block … 75” below) [6] was 40%.

`C=CCCCCCCCCC(=O)O` [Compound 118] was tested, and the inhibition at 200 µM [3] was > 70%, the inhibition at 200 µM [1] was 65% and the inhibition at 200 µM [2] was > 75%. The inhibition at 200 µM [4] was > 65%, the “percentage block … 54” value [5] was >80% and the “percentage block … 75” value [6] was 75%.

In the case of `C=CCCCCCCCCCCC(=O)O` [Compound 120], the inhibition at 200 µM [3] is reported as > 50%, the inhibition at 200 µM [1] is reported as 50% and the inhibition at 200 µM [2] is reported as > 95%. The inhibition at 200 µM [4] was > 40%.

For `CC(C)/C=C/CCCCC(=O)O` [Compound 123], the inhibition at 200 µM [1] was > 25%, the inhibition at 200 µM [2] was > 30% and the inhibition at 200 µM [4] was > 25%.

For `CCCCCC/C=C\CCCC(=O)O` [Compound 124], the inhibition at 200 µM [3] was 55%, the inhibition at 200 µM [1] was > 60% and the inhibition at 200 µM [2] was > 80%. The inhibition at 200 µM [4] was > 50%.

`CC(C)=CCCC(C)CC(=O)O` (stereo not drawn) [Compound 127] was tested, and the inhibition at 200 µM [3] was > 30%, the inhibition at 200 µM [2] was 50% and the “percentage block … 54” value [5] was >90%. For the same molecule, the “percentage block … 75” value [6] was 35%.

`CC(C)=CCCC(C)=CC(=O)O` [Compound 128] was tested, and the inhibition at 200 µM [3] was 50%, the inhibition at 200 µM [1] was > 25% and the inhibition at 200 µM [2] was > 90%. The “percentage block … 54” value [5] was >80% and the “percentage block … 75” value [6] was 40%.
